Measured values from patent US11180504B2 (ORCHID PHARMA LTD., priority 2016, dated 2021).
≈ marks a conversion by molar mass, not a printed value.

Assays:
[1] = tested on: extended spectrum β lactamase (ESBL) SHV18 producing Klebsiella pneumoniae; test: MIC by broth micro-dilution (CLSI), ESBL SHV18 producing K. pneumoniae; assay type: cell-based; conditions: Klebsiella pneumoniae, ATCC700603, 22 h, ESBL +ve (SHV-18) K. pneumoniae ATCC700603; read-out: MIC
[2] = tested on: carbapenem sensitive Pseudomonas aeruginosa; test: MIC by broth micro-dilution (CLSI), carbapenem sensitive P. aeruginosa; assay type: cell-based; conditions: Pseudomonas aeruginosa, ATCC27853, Meropenem susceptible P. aeruginosa ATCC27853; read-out: MIC
[3] = tested on: methicillin-sensitive Staphylococcus aureus; test: MIC by broth micro-dilution (CLSI), methicillin-sensitive S. aureus; assay type: cell-based; conditions: Staphylococcus aureus, ATCC 29213 / MSSA, MSSA S. aureus ATCC29213; read-out: MIC
[4] = tested on: carbapenemase producing K. pneumoniae; test: MIC by broth micro-dilution (CLSI), carbapenemase producing K. pneumoniae; assay type: cell-based, Klebsiella pneumoniae; conditions: Klebsiella pneumoniae, ATCCBAA1705, KPC-2 K. pneumoniae ATCC BAA-1705; read-out: MIC
[5] = tested on: carbapenem sensitive Escherichia coli; test: MIC by broth micro-dilution (CLSI), carbapenem sensitive E. coli; assay type: cell-based; conditions: Escherichia coli, ATCC25922, ESBL −ve E. coli ATCC25922; read-out: MIC

Compound | MIC [1] | MIC [2] | MIC [3] | MIC [4] | MIC [5]
C[C@@H](NS(=O)(=O)C(F)(F)F)[C@H]1C(=O)N2C(C(=O)O)=C(S[C@@H]3CN[C@H](C(=O)N(C)C)C3)[C@H](C)[C@H]12 [Example 13] | 8 µg/mL (≈ 15.5 µM) | 64 µg/mL (≈ 124 µM) | 4 µg/mL (≈ 7.77 µM) | 4 µg/mL (≈ 7.77 µM) | 1 µg/mL (≈ 1.94 µM)
COC(=O)N[C@H](C)[C@H]1C(=O)N2C(C(=O)O)=C(S[C@@H]3CN[C@H](C(=O)N(C)C)C3)[C@H](C)[C@H]12 [Example 14] | 4 µg/mL (≈ 9.08 µM) | 128 µg/mL (≈ 291 µM) | 4 µg/mL (≈ 9.08 µM) | 4 µg/mL (≈ 9.08 µM) | 0.5 µg/mL (≈ 1.14 µM)
CCOC(=O)N[C@H](C)[C@H]1C(=O)N2C(C(=O)O)=C(S[C@@H]3CN[C@H](C(=O)N(C)C)C3)[C@H](C)[C@H]12 [Example 15] | 16 µg/mL (≈ 35.2 µM) | 128 µg/mL (≈ 282 µM) | 2 µg/mL (≈ 4.4 µM) | 16 µg/mL (≈ 35.2 µM) | 1 µg/mL (≈ 2.2 µM)
C[C@@H](NS(=O)(=O)Cc1ccccc1)[C@H]1C(=O)N2C(C(=O)O)=C(S[C@@H]3CN[C@H](C(=O)N(C)C)C3)[C@H](C)[C@H]12 [Example 16] | 64 µg/mL (≈ 119 µM) | > 128 µg/mL | 4 µg/mL (≈ 7.45 µM) | 16 µg/mL (≈ 29.8 µM) | 4 µg/mL (≈ 7.45 µM)
C[C@@H](NC(=O)C1(C(F)(F)F)CC1)[C@H]1C(=O)N2C(C(=O)O)=C(S[C@@H]3CN[C@H](C(=O)N(C)C)C3)[C@H](C)[C@H]12 [Example 17] | > 128 µg/mL | 128 µg/mL (≈ 247 µM) | 4 µg/mL (≈ 7.71 µM) | 32 µg/mL (≈ 61.7 µM) | 16 µg/mL (≈ 30.9 µM)
CCCCS(=O)(=O)N[C@H](C)[C@H]1C(=O)N2C(C(=O)O)=C(S[C@@H]3CN[C@H](C(=O)N(C)C)C3)[C@H](C)[C@H]12 [Example 18] | 64 µg/mL (≈ 127 µM) | 32 µg/mL (≈ 63.7 µM) | 8 µg/mL (≈ 15.9 µM) | 8 µg/mL (≈ 15.9 µM) | 4 µg/mL (≈ 7.96 µM)
C[C@@H](NS(=O)(=O)C(F)(F)F)[C@H]1C(=O)N2C(C(=O)O)=C(S[C@@H]3CN[C@H](CNS(N)(=O)=O)C3)[C@H](C)[C@H]12 [Example 19] | 8 µg/mL (≈ 14.5 µM) | 128 µg/mL (≈ 232 µM) | 1 µg/mL (≈ 1.81 µM) | > 128 µg/mL | 1 µg/mL (≈ 1.81 µM)
CCOC(=S)N[C@H](C)[C@H]1C(=O)N2C(C(=O)O)=C(S[C@@H]3CN[C@H](C(=O)N(C)C)C3)[C@H](C)[C@H]12 [Example 20] | 8 µg/mL (≈ 17 µM) | 128 µg/mL (≈ 272 µM) | 2 µg/mL (≈ 4.25 µM) | 16 µg/mL (≈ 34 µM) | 1 µg/mL (≈ 2.12 µM)
COCC(=O)N[C@H](C)[C@H]1C(=O)N2C(C(=O)O)=C(S[C@@H]3CN[C@H](C(=O)N(C)C)C3)[C@H](C)[C@H]12 [Example 21] | 4 µg/mL (≈ 8.8 µM) | > 128 µg/mL | 2 µg/mL (≈ 4.4 µM) | 4 to 16 µg/mL (≈ 8.8 to 35.2 µM) | 2 µg/mL (≈ 4.4 µM)
CC(C)OC(=O)N[C@H](C)[C@H]1C(=O)N2C(C(=O)O)=C(S[C@@H]3CN[C@H](C(=O)N(C)C)C3)[C@H](C)[C@H]12 [Example 22] | 64 to 128 µg/mL (≈ 137 to 273 µM) | > 128 µg/mL | 2 µg/mL (≈ 4.27 µM) | 32 µg/mL (≈ 68.3 µM) | 8 µg/mL (≈ 17.1 µM)
C[C@@H](NS(C)(=O)=O)[C@H]1C(=O)N2C(C(=O)O)=C(S[C@@H]3CN[C@H](C(=O)N4CCN(C)CC4)C3)[C@H](C)[C@H]12 [Example 23] | 1 µg/mL (≈ 1.94 µM) | 32 to 128 µg/mL (≈ 62.1 to 248 µM) | 16 µg/mL (≈ 31 µM) | 8 µg/mL (≈ 15.5 µM) | 0.5 µg/mL (≈ 0.97 µM)
C[C@@H](NS(C)(=O)=O)[C@H]1C(=O)N2C(C(=O)O)=C(S[C@@H]3CN[C@H](C(=O)N4CCC(O)CC4)C3)[C@H](C)[C@H]12 [Example 24] | 1 µg/mL (≈ 1.94 µM) | 32 to 64 µg/mL (≈ 61.9 to 124 µM) | 16 µg/mL (≈ 31 µM) | 4 µg/mL (≈ 7.74 µM) | 0.5 µg/mL (≈ 0.968 µM)
C[C@@H](NS(=O)(=O)C(F)(F)F)[C@H]1C(=O)N2C(C(=O)O)=C(S[C@@H]3CN[C@H](C(=O)N4CCN(C)CC4)C3)[C@H](C)[C@H]12 [Example 25] | 8 µg/mL (≈ 14 µM) | 128 µg/mL (≈ 225 µM) | 4 µg/mL (≈ 7.02 µM) | 8 µg/mL (≈ 14 µM) | 1 µg/mL (≈ 1.76 µM)
CC(=O)OCC(=O)N[C@H](C)[C@H]1C(=O)N2C(C(=O)O)=C(S[C@@H]3CN[C@H](C(=O)N(C)C)C3)[C@H](C)[C@H]12 [Example 26] | 4 to 8 µg/mL (≈ 8.29 to 16.6 µM) | 128 µg/mL (≈ 265 µM) | 4 µg/mL (≈ 8.29 µM) | 8 µg/mL (≈ 16.6 µM) | 1 µg/mL (≈ 2.07 µM)
C[C@@H](NS(C)(=O)=O)[C@H]1C(=O)N2C(C(=O)O)=C(S[C@@H]3CN[C@H](C(=O)N4CCOCC4)C3)[C@H](C)[C@H]12 [Example 27] | 1 µg/mL (≈ 1.99 µM) | 64 to 128 µg/mL (≈ 127 to 255 µM) | 16 µg/mL (≈ 31.8 µM) | 4 µg/mL (≈ 7.96 µM) | 0.5 µg/mL (≈ 0.995 µM)
CCOC(=O)C(=O)N[C@H](C)[C@H]1C(=O)N2C(C(=O)O)=C(S[C@@H]3CN[C@H](C(=O)N(C)C)C3)[C@H](C)[C@H]12 [Example 28] | 2 µg/mL (≈ 4.14 µM) | 4 to 8 µg/mL (≈ 8.29 to 16.6 µM) | 8 µg/mL (≈ 16.6 µM) | 4 to 8 µg/mL (≈ 8.29 to 16.6 µM) | 2 µg/mL (≈ 4.14 µM)
